In ChEMBL document CHEMBL4184203, “A review on the hybrids of hydroxycinnamic acid as multi-target-directed ligands against Alzheimer's disease” (Bioorg Med Chem, 2018) one finds inhibition data, which are given here for one molecule.

The test concerns the target Amyloid-beta precursor protein (Homo sapiens) (UniProt P05067). The test is described as follows: Inhibition of self-mediated aggregation of amyloid beta (1 to 42 residues) (unknown origin) at 10 uM by Thioflavin T based assay relative to control.

Amyloid-beta precursor protein (Homo sapiens), sequence (P05067 whole entry, the tested form may be a part): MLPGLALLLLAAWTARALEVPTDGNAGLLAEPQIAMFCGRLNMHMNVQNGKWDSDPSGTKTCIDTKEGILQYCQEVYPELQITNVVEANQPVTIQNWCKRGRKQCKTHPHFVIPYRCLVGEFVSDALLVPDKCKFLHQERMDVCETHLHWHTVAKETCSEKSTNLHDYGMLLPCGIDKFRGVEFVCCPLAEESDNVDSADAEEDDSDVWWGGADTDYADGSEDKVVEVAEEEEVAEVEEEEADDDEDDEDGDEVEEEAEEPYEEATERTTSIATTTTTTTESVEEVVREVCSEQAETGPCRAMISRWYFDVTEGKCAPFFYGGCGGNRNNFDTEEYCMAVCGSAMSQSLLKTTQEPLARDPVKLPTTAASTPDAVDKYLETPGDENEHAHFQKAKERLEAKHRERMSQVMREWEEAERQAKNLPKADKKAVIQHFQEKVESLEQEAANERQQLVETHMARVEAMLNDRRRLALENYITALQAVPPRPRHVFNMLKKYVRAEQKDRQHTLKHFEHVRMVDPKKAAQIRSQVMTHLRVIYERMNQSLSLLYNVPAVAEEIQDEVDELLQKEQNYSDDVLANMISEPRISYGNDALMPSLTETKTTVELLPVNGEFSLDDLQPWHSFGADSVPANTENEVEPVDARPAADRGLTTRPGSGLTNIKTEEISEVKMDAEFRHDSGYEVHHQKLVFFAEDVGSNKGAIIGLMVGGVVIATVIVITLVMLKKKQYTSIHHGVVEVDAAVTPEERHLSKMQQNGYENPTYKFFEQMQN

As to `COc1cc(/C=C/C(=O)Nc2ccc(-c3ccc(NC(=O)/C=C/c4ccc(O)c(OC)c4)cc3)cc2)ccc1O`, the inhibition (as a rule, the percentage by which the read-out fell short of the control) worked out at 83.7%.
